Like-named read-outs stand apart in the source and are kept apart here.
Test system: Phytophthora infestans
Assay type: in vivo
Conditions: for E, Expected % disease control / O, Observed % disease control / O-E: A76 potato; for performance in combination with A76 (indicative of synergy): in combination with A76 potato, observed vs expected disease control
[1] = 3 ppm, Jan. 25, 2001, FB 2001/3001
[2] = 3 ppm, Jan. 26, 2001, FB 2001/3001
[3] = 3 ppm, Jan. 27, 2001, FB 2001/3001
[4] = 3 ppm, Jan. 28, 2001, FB 2001/3001
[5] = 3 ppm, Jan. 29, 2001, FB 2001/3001
[6] = 3 ppm, Oct. 13, 2000, FB 2000/3024
[7] = 3 ppm, Oct. 16, 2000, FB 2000/3024
[8] = 3 ppm, Oct. 18, 2000, FB 2000/3024
[9] = 3 ppm, Oct. 20, 2000, FB 2000/3024
[10] = 10 ppm, Jan. 25, 2001, FB 2001/3001
[11] = 10 ppm, Jan. 26, 2001, FB 2001/3001
[12] = 10 ppm, Jan. 27, 2001, FB 2001/3001
[13] = 10 ppm, Jan. 28, 2001, FB 2001/3001
[14] = 10 ppm, Jan. 29, 2001, FB 2001/3001
[15] = 10 ppm, Oct. 13, 2000, FB 2000/3024
[16] = 10 ppm, Oct. 16, 2000, FB 2000/3024
[17] = 10 ppm, Oct. 18, 2000, FB 2000/3024
[18] = 10 ppm, Oct. 20, 2000, FB 2000/3024
[19] = 30 ppm, Oct. 13, 2000, FB 2000/3024
[20] = 30 ppm, Oct. 16, 2000, FB 2000/3024
[21] = 30 ppm, Oct. 18, 2000, FB 2000/3024
[22] = 30 ppm, Oct. 20, 2000, FB 2000/3024

## N#Cc1c(Cl)c(Cl)c(Cl)c(C#N)c1Cl [Chlorothalonil, chlorothalonil]
[1]
  E, Expected % disease control: 98.3%
  O, Observed % disease control: 91.7%
  O-E: −1.6
[2]
  E, Expected % disease control: 96.2%
  O, Observed % disease control: 94.9%
  O-E: −1.3
[3]
  E, Expected % disease control: 94.5%
  O, Observed % disease control: 92.7%
  O-E: −1.7
[4]
  E, Expected % disease control: 83.2%
  O, Observed % disease control: 86.9%
  O-E: 3.6
[5]
  E, Expected % disease control: 67.2%
  O, Observed % disease control: 77.9%
  O-E: 10.7
[6]
  E, Expected % disease control: 73.73%
  O, Observed % disease control: 83.1%
  O-E: 9.37
[7]
  E, Expected % disease control: 78.12%
  O, Observed % disease control: 86.09%
  O-E: 7.97
[8]
  E, Expected % disease control: 56.09%
  O, Observed % disease control: 76.41%
  O-E: 20.32
[9]
  E, Expected % disease control: 39.95%
  O, Observed % disease control: 75.7%
  O-E: 35.75
[10]
  E, Expected % disease control: 97.0%
  O, Observed % disease control: 97.2%
  O-E: 0.2
[11]
  E, Expected % disease control: 98.2%
  O, Observed % disease control: 97.4%
  O-E: −0.8
[12]
  E, Expected % disease control: 97.8%
  O, Observed % disease control: 97.9%
  O-E: 0.1
[13]
  E, Expected % disease control: 93.8%
  O, Observed % disease control: 99.0%
  O-E: 5.2
[14]
  E, Expected % disease control: 90.1%
  O, Observed % disease control: 97.0%
  O-E: 6.9
[15]
  E, Expected % disease control: 92.49%
  O, Observed % disease control: 88.73%
  O-E: −3.76
[16]
  E, Expected % disease control: 94.65%
  O, Observed % disease control: 95.36%
  O-E: 0.71
[17]
  E, Expected % disease control: 91.33%
  O, Observed % disease control: 87.77%
  O-E: −3.56
[18]
  E, Expected % disease control: 84.98%
  O, Observed % disease control: 79.74%
  O-E: −5.24
  performance in combination with A76 (indicative of synergy): better than expected

## COCC(=O)N(c1c(C)cccc1C)C(C)C(=O)OC (centres unmarked) [Metalaxyl, metalaxyl]
[1]
  E, Expected % disease control: 88.8%
  O, Observed % disease control: 91.7%
  O-E: 2.8
[2]
  E, Expected % disease control: 92.6%
  O, Observed % disease control: 94.9%
  O-E: 2.3
[3]
  E, Expected % disease control: 87.2%
  O, Observed % disease control: 93.8%
  O-E: 6.5
[4]
  E, Expected % disease control: 57.9%
  O, Observed % disease control: 91.9%
  O-E: 34.1
[5]
  E, Expected % disease control: 38.1%
  O, Observed % disease control: 89.9%
  O-E: 51.8
[6]
  E, Expected % disease control: 79.35%
  O, Observed % disease control: 94.37%
  O-E: 15.02
[7]
  E, Expected % disease control: 71.31%
  O, Observed % disease control: 97.68%
  O-E: 26.37
[8]
  E, Expected % disease control: 58.26%
  O, Observed % disease control: 97.95%
  O-E: 39.69
[9]
  E, Expected % disease control: 42.01%
  O, Observed % disease control: 95.95%
  O-E: 53.94
[10]
  E, Expected % disease control: 98.3%
  O, Observed % disease control: 97.2%
  O-E: 3.9
[11]
  E, Expected % disease control: 96.2%
  O, Observed % disease control: 98.7%
  O-E: 2.5
[12]
  E, Expected % disease control: 94.2%
  O, Observed % disease control: 99.0%
  O-E: 4.8
[13]
  E, Expected % disease control: 80.4%
  O, Observed % disease control: 98.0%
  O-E: 17.6
[14]
  E, Expected % disease control: 55.4%
  O, Observed % disease control: 97.0%
  O-E: 41.6
[15]
  E, Expected % disease control: 88.74%
  O, Observed % disease control: 94.37%
  O-E: 5.63
[16]
  E, Expected % disease control: 87.84%
  O, Observed % disease control: 96.6%
  O-E: 8.76
[17]
  E, Expected % disease control: 75.07%
  O, Observed % disease control: 97.95%
  O-E: 22.88
[18]
  E, Expected % disease control: 48.83%
  O, Observed % disease control: 96.96%
  O-E: 48.13
[19]
  E, Expected % disease control: 96.25%
  O, Observed % disease control: 100%
  O-E: 3.75
[20]
  E, Expected % disease control: 97.08%
  O, Observed % disease control: 100%
  O-E: 2.92
[21]
  E, Expected % disease control: 94.58%
  O, Observed % disease control: 97.95%
  O-E: 3.37
[22]
  E, Expected % disease control: 89.77%
  O, Observed % disease control: 97.97%
  O-E: 8.2
  performance in combination with A76 (indicative of synergy): better than expected
